# Results as given in PubChem BioAssay AID1963973 (Molecular Pharmacology Branch, DTP, NCI, 2024).
# System: 883617-216-R-J1-PDC tumor spheroids, viability
# Test: Anticancer human tumor 883617-216-R-J1-PDC patient-derived bladder carcinoma cell line growth inhibition [PI3K]
# Details: spheroids with HUVEC and MSC; for IC50: curve of first compound; for viability, T/C: stronger effect = lower value
# Excerpt: Combinatorial screen of targeted agents with the PI3K inhibitors inavolisib, alpelisib, duvelisib, and copanlisib in multi-cell type tumor spheroids
# A high-throughput screen of multi-cell type tumor spheroids was designed to identify active combinations of targeted small molecules and PI3K pathway inhibitors. Complex spheroids include a stromal component modeled by human endothelial cells (HUVEC) and fibroblasts modeled by human mesenchymal stem cells (MSCs). The concentration ranges selected for each drug and investigational agent were based upon clinically achievable concentrations if the clinical Cmax of the agent was known.
# Compounds. The drugs and investigational agents: inavolisib (NSC800729), alpelisib (NSC765974), duvelisib (NSC772469), copanlisib (NSC816437), ipatasertib (NSC767898), afuresertib (NSC778305), talazoparib (NSC767125), sapanisertib (NSC764658), selumetinib (NSC741078), tovorafenib (DAY101, NSC766906), vemurafenib (NSC761431), ravoxertinib (NSC781343), sotorasib (NSC818433), MRTX1133 (NSC 836407), abemaciclib (NSC 768073), palbociclib (NSC758247), venetoclax (NSC 766270), SY5609 (NSC837396), enzalutamide (NSC755605), and darolutamide (NSC825331), were obtained from the National Cancer Institute (NCI) Developmental Therapeutics Program Chemical Repository. The FDA-approved anticancer drug set is available from the NCI Developmental Therapeutics Program. […] The stock solutions were prepared in dimethyl sulfoxide (DMSO, Sigma-Aldrich, St. Louis, MO, cat. D2650) at 800-fold the tested concentration and stored at -70 degrees C prior to their use. All drugs and investigational agents were tested over a range starting from a high concentration at or near the clinical Cmax and decreasing in half-log increments. If the clinical Cmax for an agent had not been determined, the highest concentration tested was 10 microM.
# Cell Culture. All cells were maintained in an incubator at 37 degrees C and 5% CO2 with 95% humidity. The PDC lines were cultured according to standard operating procedures established by the NCI PDMR (https://pdmr.cancer.gov/sops/default.htm). All PDCs were thawed and cultured in Matrigel-coated flasks prepared with a working solution of 1X Ham's F-12 nutrient mix, without supplementation (Invitrogen, Waltham, MA, cat. 11765054), 100 U/mL penicillin-streptomycin (Invitrogen, cat. 15140122), and 2.5% Matrigel (Corning Inc., Corning, NY, cat. 354248) for the first three passages. The 354836-022-R-J1-PDC, 475296-252-R-J1-PDC, and 997726-040-R-J2-PDC lines were cultured in 6A media, which includes advanced DMEM/F-12 (Thermo Fisher Scientific, cat. 12634028), 10 mM HEPES (Thermo Fisher Scientific, cat. 15630080), 1X GlutaMAX supplement (Thermo Fisher Scientific, cat. 35050061), 0.1 mg/mL primocin (InvivoGen, San Diego, CA, cat. ant-pm-2), 10% defined fetal bovine serum, heat inactivated (HyClone Laboratories Inc., Logan, UT, cat. SH30070.03HI), 50% L-WRN conditioned media (ATCC, cat. CRL-3276), 1.25 mM N-Acetyl-L-cysteine (Sigma-Aldrich, cat. A9165), 10 mM nicotinamide (Sigma-Aldrich, cat. N0636), 1X B-27 supplement (Thermo Fisher Scientific, cat. 17504044), 1X N-2 supplement (Thermo Fisher Scientific, cat. 17502048), and 10 microM Y-27632 dihydrochloride (Tocris Bioscience, Bristol, United Kingdom, cat. 1254). The 624824-186-R-J2-PDC line was cultured in 6C/Colon 1B media, which includes all 6A media components plus 50 ng/mL human EGF recombinant protein (Thermo Fisher Scientific, cat. PHG0311). […]
# [1] = second compound 0.0316 µM, first compound 0.0316 µM
# [2] = second compound 0.0316 µM, first compound 0.1 µM
# [3] = second compound 0.1 µM, first compound 0.0316 µM
# [4] = second compound 0.1 µM, first compound 0.1 µM
# [5] = second compound 0.316 µM, first compound 0.0316 µM
# [6] = second compound 0.316 µM, first compound 0.1 µM
# [7] = second compound 1 µM, first compound 0.0316 µM
# [8] = second compound 1 µM, first compound 0.1 µM
# 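Note: spheroids exposed to agents for 7 days before the viability read.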
structure (smiles),measurement,setting,value
Cn1nccc1Nc1nccc(-c2ccn(C(CO)c3ccc(Cl)c(F)c3)c(=O)c2)n1 (centres undefined) + Cc1nc(NC(=O)N2CCCC2C(N)=O)sc1-c1ccnc(C(C)(C)C(F)(F)F)c1,IC50,second compound 0.0316 µM,9040 nM
same,IC50,second compound 0.1 µM,2550 nM
same,IC50,second compound 0.316 µM,< 31.6 nM
same,IC50,second compound 1 µM,< 31.6 nM
same,IC50,second compound 3.16 µM,< 31.6 nM
same,IC50,second compound 10 µM,< 31.6 nM
same,"viability, T/C",[1],82.5%
same,"viability, T/C",[2],79.8%
same,"viability, T/C","second compound 0.0316 µM, first compound 0.316 µM",68.7%
same,"viability, T/C","second compound 0.0316 µM, first compound 1 µM",68.3%
same,"viability, T/C","second compound 0.0316 µM, first compound 3.16 µM",68%
same,"viability, T/C","second compound 0.0316 µM, first compound 10 µM",46.3%
same,"viability, T/C",[3],69.7%
same,"viability, T/C",[4],72.5%
same,"viability, T/C","second compound 0.1 µM, first compound 0.316 µM",66.7%
same,"viability, T/C","second compound 0.1 µM, first compound 1 µM",56%
same,"viability, T/C","second compound 0.1 µM, first compound 3.16 µM",48.7%
same,"viability, T/C","second compound 0.1 µM, first compound 10 µM",33.2%
same,"viability, T/C",[5],47.3%
same,"viability, T/C",[6],44.1%
same,"viability, T/C","second compound 0.316 µM, first compound 0.316 µM",43.9%
same,"viability, T/C","second compound 0.316 µM, first compound 1 µM",34.5%
same,"viability, T/C","second compound 0.316 µM, first compound 3.16 µM",30.8%
same,"viability, T/C","second compound 0.316 µM, first compound 10 µM",24.4%
same,"viability, T/C",[7],26.2%
same,"viability, T/C",[8],25.7%
same,"viability, T/C","second compound 1 µM, first compound 0.316 µM",26.3%
same,"viability, T/C","second compound 1 µM, first compound 1 µM",20.5%
same,"viability, T/C","second compound 1 µM, first compound 3.16 µM",15.1%
same,"viability, T/C","second compound 1 µM, first compound 10 µM",12.8%
same,"viability, T/C","second compound 3.16 µM, first compound 0.0316 µM",13.3%
same,"viability, T/C","second compound 3.16 µM, first compound 0.1 µM",12.2%
same,"viability, T/C","second compound 3.16 µM, first compound 0.316 µM",9.5%
same,"viability, T/C","second compound 3.16 µM, first compound 1 µM",9.97%
same,"viability, T/C","second compound 3.16 µM, first compound 3.16 µM",8.33%
same,"viability, T/C","second compound 3.16 µM, first compound 10 µM",7.21%
same,"viability, T/C","second compound 10 µM, first compound 0.0316 µM",5.74%
same,"viability, T/C","second compound 10 µM, first compound 0.1 µM",5.78%
same,"viability, T/C","second compound 10 µM, first compound 0.316 µM",4.59%
same,"viability, T/C","second compound 10 µM, first compound 1 µM",4.62%
same,"viability, T/C","second compound 10 µM, first compound 3.16 µM",3.21%
same,"viability, T/C","second compound 10 µM, first compound 10 µM",1.26%
CC(=O)c1c(C)c2cnc(Nc3ccc(N4CCNCC4)cn3)nc2n(C2CCCC2)c1=O + COc1c(OCCCN2CCOCC2)ccc2c3n(c(=NC(=O)c4cnc(N)nc4)nc12)CCN3,IC50,second compound 0.00316 µM,41.2 nM
same,IC50,second compound 0.01 µM,24.7 nM
same,IC50,second compound 0.0316 µM,< 0.316 nM
same,IC50,second compound 0.1 µM,< 0.316 nM
same,IC50,second compound 0.316 µM,< 0.316 nM
same,IC50,second compound 1 µM,< 0.316 nM
same,"viability, T/C","second compound 0.00316 µM, first compound 0.000316 µM",63.1%
same,"viability, T/C","second compound 0.00316 µM, first compound 0.001 µM",75.6%
same,"viability, T/C","second compound 0.00316 µM, first compound 0.00316 µM",92.5%
same,"viability, T/C","second compound 0.00316 µM, first compound 0.01 µM",72.2%
same,"viability, T/C","second compound 0.00316 µM, first compound 0.0316 µM",53.3%
same,"viability, T/C","second compound 0.00316 µM, first compound 0.1 µM",39.7%
same,"viability, T/C","second compound 0.01 µM, first compound 0.000316 µM",71.5%
same,"viability, T/C","second compound 0.01 µM, first compound 0.001 µM",70.5%
same,"viability, T/C","second compound 0.01 µM, first compound 0.00316 µM",61.2%
same,"viability, T/C","second compound 0.01 µM, first compound 0.01 µM",71.6%
same,"viability, T/C","second compound 0.01 µM, first compound 0.0316 µM",44.9%
same,"viability, T/C","second compound 0.01 µM, first compound 0.1 µM",26.4%
same,"viability, T/C","second compound 0.0316 µM, first compound 0.000316 µM",40.5%
same,"viability, T/C","second compound 0.0316 µM, first compound 0.001 µM",37.6%
same,"viability, T/C","second compound 0.0316 µM, first compound 0.00316 µM",30.2%
same,"viability, T/C","second compound 0.0316 µM, first compound 0.01 µM",27.5%
same,"viability, T/C",[1],27.1%
same,"viability, T/C",[2],21.6%
same,"viability, T/C","second compound 0.1 µM, first compound 0.000316 µM",16.1%
same,"viability, T/C","second compound 0.1 µM, first compound 0.001 µM",12.2%
same,"viability, T/C","second compound 0.1 µM, first compound 0.00316 µM",11.1%
same,"viability, T/C","second compound 0.1 µM, first compound 0.01 µM",13%
same,"viability, T/C",[3],11.2%
same,"viability, T/C",[4],11.8%
same,"viability, T/C","second compound 0.316 µM, first compound 0.000316 µM",4.61%
same,"viability, T/C","second compound 0.316 µM, first compound 0.001 µM",5.01%
same,"viability, T/C","second compound 0.316 µM, first compound 0.00316 µM",4.74%
same,"viability, T/C","second compound 0.316 µM, first compound 0.01 µM",3.95%
same,"viability, T/C",[5],4.31%
same,"viability, T/C",[6],3.85%
same,"viability, T/C","second compound 1 µM, first compound 0.000316 µM",3.24%
same,"viability, T/C","second compound 1 µM, first compound 0.001 µM",2.85%
same,"viability, T/C","second compound 1 µM, first compound 0.00316 µM",2.99%
same,"viability, T/C","second compound 1 µM, first compound 0.01 µM",3.68%
same,"viability, T/C",[7],2.94%
same,"viability, T/C",[8],2.98%
